Paper PMC4504005, “Structural Basis for Receptor Activity-Modifying Protein-Dependent Selective Peptide Recognition by a G Protein-Coupled Receptor” (Molecular cell, 2015)
Where two headings read alike, the source gives them in different places. Ends that are not written are not given here.

How the values were obtained:
[1] = biological target: T1, MBP-RAMP1 ECD-(GSA)3-CLR ECD-H6 (Homo sapiens, UniProt O60894+Q16602); assay: Competition AlphaScreen, CGRP receptor ECD complex; format: binding; settings: for binding of swap peptide: competition AlphaScreen, Figures 6E-6G, 100 nM protein, 100 nM biotin-CGRP
T1 construct: made in house; host or cells: E. coli (co-expressed with DsbC)
From the text: (§1) Plasmid construction, mutagenesis, protein expression, purification, and the AlphaScreen peptide-binding assay were as previously described with minor modifications to the AlphaScreen assay ([Hill and Pioszak, 2013]; [Moad and Pioszak, 2013]). Synthetic peptides were from RS Synthesis, Bachem, or were synthesized in-house. Details are in Supplemental Experimental Procedures.
(§2) Supplemental Experimental Procedures
(§3) Plasmid construction and protein production and characterization. Bacterial pETDuet1 […]
(§4) numbers indicated) fusion proteins co-expressed with DsbC were constructed using the Gibson Assembly cloning method with Gibson Assembly master mix (New England […]
(§5) 2014). Site directed mutagenesis was performed with the QuikChange II kit (Agilent) or using the Gibson Assembly method. Primer sequences are available upon request. All constructs were verified by automated DNA sequencing.
(§6) The tethered ECD fusion proteins were expressed in E. coli, purified, and characterized for peptide binding with an AlphaScreen peptide binding assay as previously described (Moad and Pioszak, 2013), except that the AlphaScreen competition assays also included 0.3% (v/v) Triton X-100 in the reaction buffer. Triton X-100 […]
(§7) reactions in which the donor and acceptor beads were brought together by a Biotin-(Gly)6-(His)6 peptide. The binding experiments were conducted at least three times with each independent experiment performed with duplicate samples. pIC50 values are stated as the mean of the replicate independent experiments ± S.E.M. Although slight variation […]
(§8) Peptides. […]

[2] = system: MBP-hRAMP1.24-111-(Gly-Ser-Ala)3-hCLR.29-144-H6; assay: Apparent aggregation in AlphaScreen competition assay, RAMP1-(GSA)3-CLR protein; format: physicochemical, human; settings: reaction buffer with 0.3% (v/v) Triton X-100, which minimized but did not completely prevent it; data not shown
From the text: as §2, §3
(§9) numbers indicated) fusion proteins co-expressed with DsbC were constructed using the Gibson Assembly cloning method with Gibson Assembly master mix (New England Biolabs). Plasmids for expression of tagged full-length CLR and RAMP1 or -2 receptors in mammalian cells were previously described (Barwell et al., 2010; Watkins et al., 2014). Site directed mutagenesis was performed with the QuikChange II kit (Agilent) or using the Gibson Assembly method. Primer sequences are available upon request. All constructs were verified by automated DNA sequencing.
as §6
Ser-Ala)3-hCLR.29-144-H6 proteins (data not shown).
CGRP analog prevented it from fully competing the binding signal to background levels […]
receptor crystallization construct are likely a bit higher than the true values. Competitor

[3] = biological target: T2, MBP-RAMP2 ECD [L106R]-(GSA)3-CLR ECD-H6 (Homo sapiens, UniProt O60895+Q16602, L106R); assay: Competition AlphaScreen, AM1 receptor ECD complex [L106R]; format: binding; settings: for binding of swap peptide: competition AlphaScreen, Figures 6H-6J
T2 construct: MBP-hRAMP2.55-140 [L106R]-(Gly-; Ser-Ala)3-hCLR.29-144-H6 proteins; made in house; host or cells: E. coli (co-expressed with DsbC)
From the text: as §1, §2, §3, §4, §5, §6, §7, §8

[4] = biological target: T3, MBP-RAMP2 ECD-(GS)5-CLR ECD-H6 (WT RAMP2 ECD-CLR ECD fusion) (Homo sapiens, UniProt O60895+Q16602); assay: Competition AlphaScreen, WT RAMP2 ECD-CLR ECD fusion; format: binding; settings: text (Fig S1C), approximate
T3 construct: MBP-hRAMP2.55-140-(Gly-Ser-Ala)3-hCLR.29-144-H6; made in house; host or cells: E. coli
From the text: as §1, §2, §3, §9, §6

[5] = 100 nM protein, 100 nM biotin-AM
[6] = Figure 6I, 100 nM protein, 100 nM biotin-AM, 0.3% Triton X-100, mean ± SEM, at least three independent experiments in duplicate, read-out: pIC50 (converted)

Compound | binding of swap peptide [3, 5] | binding of swap peptide [1] | IC50 [3, 6] [µM] | other results
CC(C)[C@H](NC(=O)[C@H](CC(=O)O)NC(=O)[C@@H](NC(=O)[C@@H]1CCCN1C(=O)[C@@H](NC(=O)[C@@H](N)Cc1ccccc1)C(C)C)[C@@H](C)O)C(=O)NCC(=O)N1CCC[C@H]1C(=O)N[C@@H](Cc1ccccc1)C(=O)N[C@@H](C)C(=O)N[C@@H](Cc1ccccc1)C(N)=O [CGRPmut] |  |  |  | IC50 [1]: 0.457 µM; apparent aggregation [2]: apparent aggregation
AM(37–52)NH2 [Y52F]: C-terminal residue swap of minimal ECD complex-binding AM peptide | exhibited significantly diminished binding to the AM1 receptor ECD complex | did not gain increased affinity for the CGRP receptor ECD complex |  | 
FVPTDVGPFAY-NH2 [CGRPmut [F37Y]] | gained the ability to bind the AM1 receptor ECD complex as strongly as AM | retained CGRP receptor ECD complex binding | 16.2 | 
DKDNVAPRSKISPQGY-NH2 [AM(37–52)] |  |  |  | IC50 ([3]; Figure 6J, 100 nM protein, 100 nM biotin-AM, 0.3% Triton X-100, mean ± SEM, at least three independent experiments in duplicate, read-out: pIC50 (converted)): 10 µM
CC[C@H](C)[C@H](NC(=O)[C@H](CCC(N)=O)NC(=O)[C@H](Cc1c[nH]cn1)NC(=O)[C@H](C)NC(=O)[C@H](CC(C)C)NC(=O)[C@H](CCCCN)NC(=O)[C@H](CCC(N)=O)NC(=O)[C@@H](NC(=O)[C@@H](N)[C@@H](C)O)C(C)C)C(=O)N[C@@H](Cc1ccc(O)cc1)C(=O)N[C@@H](CCC(N)=O)C(=O)N[C@@H](Cc1ccccc1)C(=O)N[C@H](C(=O)N[C@@H](CC(=O)O)C(=O)N[C@@H](CCCCN)C(=O)N[C@@H](CC(=O)O)C(=O)N[C@@H](CCCCN)C(=O)N[C@@H](CC(=O)O)C(=O)N[C@@H](CC(N)=O)C(=O)N[C@H](C(=O)N[C@@H](C)C(=O)N1CCC[C@H]1C(=O)N[C@@H](CCCNC(=N)N)C(=O)N[C@@H](CO)C(=O)N[C@@H](CCCCN)C(=O)N[C@H](C(=O)N[C@@H](CO)C(=O)N1CCC[C@H]1C(=O)N[C@@H](CCC(N)=O)C(=O)NCC(=O)N[C@@H](Cc1ccc(O)cc1)C(N)=O)[C@@H](C)CC)C(C)C)[C@@H](C)O [AM(22-52)NH2] |  |  | 14.5 | IC50 [4]: 5 to 15 µM; IC50 ([3]; AlphaScreen competition, text (Figs S1C, S1H), approximate, read-out: IC50): 5 to 15 µM; IC50 ([3]; Figure 6H, 100 nM protein, 100 nM biotin-AM, 0.3% Triton X-100, mean ± SEM, at least three independent experiments in duplicate, read-out: pIC50 (converted)): 12 µM
